This note sets out measurements from PMC7388970 (The Cell Surface, 2020).

The subject of test [1] is mycolic acid biosynthesis in M. bovis BCG. It counts as cell-based, Mycobacterium bovis BCG.
Test [2] concerns Mycobacterium bovis BCG cells. It counts as cell-based.
Another test has as its system J774 cells. The experiment in a line: MTT assay for cytotoxicity. Format: cell-based. The note with it: Mus musculus, J774, 24 h, read-out: J-774 (IC50). (Formazan colour is commonly taken as a measure of viable cells.)

Converted amounts (≈) assume the structure as drawn.

What is called IC50 is the midpoint of a concentration-inhibition curve.

Turning to `COc1ccc(C=CC(=O)c2ccccc2)cc1OC` [Compound 1a, 3-(3,4-Dimethoxyphenyl)-1-phenylprop-2-en-1-one], in test [1], the FAMEs entry is “accumulation of FAMEs in a dose-dependent manner”; the “production of α- and k-MAMEs” value is listed as “dose-dependent decrease”. Moreover, in test [2], the “proportion of cells showing morphological changes” value was determined as 76%. In addition, the half-inhibitory concentration (IC50) with J774 cells was 50 mg/L (≈ 186 µM).

In the case of `COc1ccc(C=CC(=O)c2cccc(Br)c2)cc1OC` [Compound 1b, 1-(3-Bromophenyl)-3-(3,4-dimethoxyphenyl)prop-2-en-1-one], in the test with J774 cells, the 50% inhibitory concentration (IC50) is 25 mg/L (≈ 72 µM).

Turning to `COc1ccc(C=CC(=O)c2ccccc2Br)cc1OC` [Compound 1c, 1-(2-Bromophenyl)-3-(3,4-dimethoxyphenyl)prop-2-en-1-one], in the test on J774 cells, the 50% inhibitory concentration (IC50) stood at 25 mg/L (≈ 72 µM).

`COc1ccc(C=CC(=O)c2ccc(Br)cc2)cc1OC` [Compound 1d, 1-(4-Bromophenyl)-3-(3,4-dimethoxyphenyl)prop-2-en-1-one]: the half-inhibitory concentration (IC50) with J774 cells was found to be 25 mg/L (≈ 72 µM).

On to `COc1ccc(C=CC(=O)c2cccc(Cl)c2)cc1OC` [Compound 1e, 1-(3-Chlorophenyl)-3-(3,4-dimethoxyphenyl)prop-2-en-1-one], for which the 50% inhibitory concentration (IC50) in the test on J774 cells turned out to be 12.5 mg/L (≈ 41.3 µM).

In the case of `COc1ccc(C=CC(=O)c2ccccc2Cl)cc1OC` [Compound 1f, 1-(2-Chlorophenyl)-3-(3,4-dimethoxyphenyl)prop-2-en-1-one], the IC50 in the test with J774 cells was determined as 12.5 mg/L (≈ 41.3 µM).

With `COc1ccc(C=CC(=O)c2ccc(Cl)cc2)cc1OC` [Compound 1g, 1-(4-Chlorophenyl)-3-(3,4-dimethoxyphenyl)prop-2-en-1-one], the half-inhibitory concentration (IC50) in the test with J774 cells is 12.5 mg/L (≈ 41.3 µM).

For the molecule `COc1ccc(C=CC(=O)c2ccc(C)cc2)cc1OC` [Compound 1j, 3-(3,4-Dimethoxyphenyl)-1-(p-tolyl)prop-2-en-1-one], the IC50 in the test with J774 cells came out at 25 mg/L (≈ 88.5 µM).

Regarding `COc1ccc(C=CC(=O)c2ccc(-c3ccccc3)cc2)cc1OC` [Compound 1k, 1-([1,1'-Biphenyl]-4-yl)-3-(3,4-dimethoxyphenyl)prop-2-en-1-one], the IC50 in the test with J774 cells worked out at 25 mg/L (≈ 72.6 µM).

Consider `COc1ccc(C=CC(=O)c2ccccc2C)cc1OC` [Compound 1m, 3-(3,4-Dimethoxyphenyl)-1-(o-tolyl)prop-2-en-1-one], for which the concentration for half-maximal inhibition (IC50) in the test on J774 cells is 25 mg/L (≈ 88.5 µM).

For `COc1ccc(C=CC(=O)c2ccc([N+](=O)[O-])cc2)cc1OC` [Compound 1n, 3-(3,4-Dimethoxyphenyl)-1-(4-nitrophenyl)prop-2-en-1-one], the 50% inhibitory concentration (IC50) with J774 cells is 50 mg/L (≈ 160 µM).
